Reference: ChEMBL document CHEMBL1146821, “Pyridazines. Part 36: Synthesis and antiplatelet activity of 5-substituted-6-phenyl-3(2H)-pyridazinones” (Bioorg Med Chem Lett, 2004)

Organism: Homo sapiens
Assay: The antiplatelet activity by the turbidimetric method in washed human platelets using thrombin as agonist; Precipitates under the conditions of the study.
Assay type: functional; call rule not given here

Structure (SMILES) | IC50
O=Cc1ccc(-c2cc(O)nnc2-c2ccccc2)cc1 | Precipitates under the conditions of the study
Oc1cc(-c2ccc(Cl)cc2)c(-c2ccccc2)nn1 | Precipitates under the conditions of the study
Oc1cc(-c2ccccc2)c(-c2ccccc2)nn1 | Precipitates under the conditions of the study

Organism: Homo sapiens
Assay: The antiplatelet activity by the turbidimetric method in washed human platelets using thrombin as agonist; Promotes platelet aggregation.
Assay type: functional

Structure (SMILES) | IC50
Oc1cc(Oc2ccccc2)c(-c2ccccc2)nn1 | Promotes platelet aggregation

Organism: Homo sapiens
Assay: The antiplatelet activity was tested by the turbidimetric method in washed human platelets using thrombin as agonist.
Assay type: functional

Structure (SMILES) | IC50
COC(=O)C(=Cc1cc(=O)[nH]nc1-c1ccccc1)C(=O)OC | 45 µM
CCOC(=O)C(=Cc1cc(=O)[nH]nc1-c1ccccc1)C(=O)OCC | 20 µM
Cc1ccc(-c2cc(O)nnc2-c2ccccc2)cc1 | 152 µM
CCOC(C#Cc1cc(O)nnc1-c1ccccc1)OCC | > 1000 µM
O=C1C(CC[S+]([O-])c2ccccc2)C(=O)N(c2ccccc2)N1c1ccccc1 (stereo unspecified) [SULFINPYRAZONE] | 500 µM
O=C(/C=C/c1cc(=O)[nH]nc1-c1ccccc1)c1ccccc1 | 25 µM
C#Cc1cc(O)nnc1-c1ccccc1 | 500 µM
Oc1cc(Sc2ccccc2)c(-c2ccccc2)nn1 | 15 µM
COC(=O)/C=C/c1cc(O)nnc1-c1ccccc1 | > 1000 µM
COCCOC(=O)/C=C/c1cc(O)nnc1-c1ccccc1 | > 1000 µM
N#C/C=C/c1cc(=O)[nH]nc1-c1ccccc1 | > 1000 µM
OCCC#Cc1cc(O)nnc1-c1ccccc1 | > 2000 µM
OCCCC#Cc1cc(O)nnc1-c1ccccc1 | > 1000 µM
OCC#Cc1cc(O)nnc1-c1ccccc1 | > 1000 µM
Oc1cc(-c2ccco2)c(-c2ccccc2)nn1 | 635 µM

Organism: Homo sapiens
Assay: The antiplatelet activity by the turbidimetric method in washed human platelets using thrombin as agonist; NA is inactive
Assay type: functional

Structure (SMILES) | IC50
CCOC(=O)/C=C/c1cc(=O)[nH]nc1-c1ccccc1 | Not Active
O=c1cc(/C=C/c2ccccc2)c(-c2ccccc2)n[nH]1 | Not Active
